In patent publication US20240327412A1, “FACTOR XIIA INHIBITORS” (KALVISTA PHARMACEUTICALS LIMITED, priority 2021, published 2024):

Key:
Human Factor XIIa = molecular target: T1, Human Factor XIIa (Homo sapiens, UniProt P00748); test: Determination of FXIIa inhibition (fluorogenic substrate H-DPro-Phe-Arg-AFC, IC50 assay); type: biochemical; conditions: substrate at Km concentration, 25° C.; category scale; read-out: Human FXII IC50 (nm)
T1 construct: Proteolytic cleavage of FXII to heavy and light chains of FXIIa dramatically increases catalytic activity; purchased Enzyme Research Laboratories
T1 sequence (P00748 373-615 limits assumed): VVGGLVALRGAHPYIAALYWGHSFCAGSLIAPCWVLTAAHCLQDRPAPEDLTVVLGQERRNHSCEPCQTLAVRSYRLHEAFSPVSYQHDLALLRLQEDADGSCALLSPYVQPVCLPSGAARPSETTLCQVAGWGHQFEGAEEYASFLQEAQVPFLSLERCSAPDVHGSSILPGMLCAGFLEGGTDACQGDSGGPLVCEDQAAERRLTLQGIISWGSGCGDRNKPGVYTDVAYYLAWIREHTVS
T1 sequence (P00748 20-372 partner limits assumed): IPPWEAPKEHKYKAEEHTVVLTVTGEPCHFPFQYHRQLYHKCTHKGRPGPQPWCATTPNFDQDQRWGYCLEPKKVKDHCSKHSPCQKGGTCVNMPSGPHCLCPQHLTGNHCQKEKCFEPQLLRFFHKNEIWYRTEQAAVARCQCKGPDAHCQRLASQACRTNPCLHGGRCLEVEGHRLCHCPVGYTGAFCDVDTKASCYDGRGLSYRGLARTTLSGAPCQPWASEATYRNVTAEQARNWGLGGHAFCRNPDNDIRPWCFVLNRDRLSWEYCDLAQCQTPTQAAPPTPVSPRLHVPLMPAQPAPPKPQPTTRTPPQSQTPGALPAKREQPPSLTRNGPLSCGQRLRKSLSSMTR
Summary of the method: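 At substrate Km and 25° C., the rate of AFC release from H-DPro-Phe-Arg-AFC by human Factor XIIa was followed for 5 min across compound concentrations. Inhibition was derived as percent of uninhibited rate, giving IC50.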

Plasma Kallikrein = molecular target: T2, Plasma Kallikrein (Homo sapiens, UniProt P03952); test: Related protease inhibition: Plasma Kallikrein (fluorogenic substrate at Km); type: biochemical; conditions: class symbols per Table 18, read-out: IC50 (human PKal)
T2 construct: FXIIa converts plasma prekallikrein (PK) to plasma kallikrein (PKa)
T2 sequence (P03952 391-638 limits assumed): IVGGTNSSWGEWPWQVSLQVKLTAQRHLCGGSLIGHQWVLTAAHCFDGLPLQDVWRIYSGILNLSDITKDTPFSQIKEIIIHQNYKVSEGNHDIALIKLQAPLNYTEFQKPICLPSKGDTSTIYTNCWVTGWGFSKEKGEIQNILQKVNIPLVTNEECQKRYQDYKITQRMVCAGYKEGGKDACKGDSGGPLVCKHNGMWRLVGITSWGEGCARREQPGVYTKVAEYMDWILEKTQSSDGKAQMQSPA
T2 sequence (P03952 20-390 partner limits assumed): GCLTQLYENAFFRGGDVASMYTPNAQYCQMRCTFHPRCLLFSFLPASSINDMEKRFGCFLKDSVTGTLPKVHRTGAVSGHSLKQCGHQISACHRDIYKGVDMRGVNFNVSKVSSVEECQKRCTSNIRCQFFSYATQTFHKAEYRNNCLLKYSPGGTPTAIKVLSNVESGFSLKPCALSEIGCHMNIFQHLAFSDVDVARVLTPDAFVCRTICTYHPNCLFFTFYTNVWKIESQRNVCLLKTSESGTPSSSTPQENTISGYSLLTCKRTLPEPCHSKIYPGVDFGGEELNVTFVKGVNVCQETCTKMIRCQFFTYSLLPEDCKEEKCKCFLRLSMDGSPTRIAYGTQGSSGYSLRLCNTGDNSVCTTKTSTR
Method: In vitro inhibition of related proteases was determined using an IC50 assay based on standard literature methods (see e.g. Shori et al., Biochem. Pharmacol., 1992, 43, 1209; Bouckaert et al., European Journal of Medicinal Chemistry 110 (2016) 181). Human serine protease enzyme Plasma Kallikrein, KLK1, FXa, Plasmin, Thrombin and Trypsin were assayed for enzymatic activity using an appropriate fluorogenic substrate at Km concentration, FXIa at fixed substrate concentration of 100 μM and various concentrations of the test compound. Protease activity was measured by monitoring the accumulation of liberated fluorescence from the substrate over 5 min at 25° C. The linear rate of fluorescence increase per minute was expressed as percentage (%) activity. IC50 values were calculated as the concentration of inhibitor giving 50% inhibition of the uninhibited enzyme activity (100%).

Compound | IC50 (Human Factor XIIa) [µM] | IC50 (Plasma Kallikrein) [µM]
Nc1nccc2c(NCC34CC(COC5CCn6ccnc6C5)(C3)C4)cccc12 (single isomer, unassigned) [Example 1002.2, (R*)-N5-((3-(((5,6,7,8-tetrahydroimidazo[1,2-a]pyridin-7-yl)oxy)methyl)bicyclo[1.1.1]pentan-1-yl)methyl)isoquinoline-1,5-diamine] | 0.3 to 1 | > 40
Nc1nccc2c(N3CC4(CCC4OCc4ccn5ccnc5c4)C3)cccc12 (single isomer, unassigned) [Example 9002, (R*)-5-(5-(imidazo[1,2-a]pyridin-7-ylmethoxy)-2-azaspiro[3.3]heptan-2-yl)isoquinolin-1-amine] | 10 to 40 | > 40
Nc1nccc2c(N3CC4(CCC4OCc4ccn5ccnc5c4)C3)cccc12 (single isomer, unassigned) [Example 9003, (S*)-5-(5-(imidazo[1,2-a]pyridin-7-ylmethoxy)-2-azaspiro[3.3]heptan-2-yl)isoquinolin-1-amine] | 10 to 40 | > 40
CC(C)N1C[C@@H]2C[C@H]1CN2CC12CC(CNc3cccc4c(N)nccc34)(C1)C2 [Example 1005.1, N5-((3-(((1S,4S)-5-Isopropyl-2,5-diazabicyclo[2.2.1]heptan-2-yl)methyl)bicyclo[1.1.1]pentan-1-yl)methyl)isoquinoline-1,5-diamine] | 0.3 to 1 | > 40
Nc1nccc2c(OCC34CC(COc5ccn6ccnc6c5)(C3)C4)cccc12 [Example 1013, 5-[[3-(Imidazo[1,2-a]pyridin-7-yloxymethyl)-1-bicyclo[1.1.1]pentanyl]methoxy]isoquinolin-1-amine] | 0.3 to 1 | > 40
Nc1nccc2c(CCC34CC(COc5ccn6ccnc6c5)(C3)C4)cccc12 [Example 1014, 5-[2-[3-(Imidazo[1,2-a]pyridin-7-yloxymethyl)-1-bicyclo[1.1.1]pentanyl]ethyl]isoquinolin-1-amine] | 1 to 3 | > 40
Nc1nccc2c(OCC34CC(C(=O)N5CCn6ccnc6C5)(C3)C4)cccc12 [Example 1015, [3-[(1-aminoisoquinolin-5-yl)oxymethyl]-1-bicyclo[1.1.1]pentanyl]-(6,8-dihydro-5H-imidazo [1,2-a]pyrazin-7-yl)methanone] | 10 to 40 | > 40
Nc1nccc2c(NCC34CC(COc5cccn6ccnc56)(C3)C4)cccc12 [Example 1018, 5-N-[[3-(Imidazo[1,2-a]pyridin-8-yloxymethyl)-1-bicyclo[1.1.1]pentanyl]methyl]isoquinoline-1,5-diamine] | 0.3 to 1 | > 40
Nc1nccc2c(NCC34CC(COc5ccc6c(c5)NC(=O)C6)(C3)C4)cccc12 [Example 1113, 6-((3-(((1-aminoisoquinolin-5-yl)amino)methyl)bicyclo[1.1.1]pentan-1-yl)methoxy)indolin-2-one] | 1 to 3 | > 40
Nc1nccc2c(NCC34CC(COc5ccc6cn[nH]c6c5)(C3)C4)cccc12 [Example 1125, N5-((3-(((1H-indazol-6-yl)oxy)methyl)bicyclo[1.1.1]pentan-1-yl)methyl)isoquinoline-1,5-diamine] | 10 to 40 | > 40
Nc1nccc2c(NCC34CC(Cn5ccn6ccc(=O)cc56)(C3)C4)cccc12 [Example 1127, 1-((3-(((1-aminoisoquinolin-5-yl)amino)methyl)bicyclo[1.1.1]pentan-1-yl)methyl)imidazo[1,2-a]pyridin-7(1H)-one] | 3 to 10 | > 40
Clc1c[nH]c2ncc(NCC34CC(COc5ccn6ccnc6c5)(C3)C4)cc12 [Example 1129, 3-chloro-N-((3-((imidazo[1,2-a]pyridin-7-yloxy)methyl)bicyclo[1.1.1]pentan-1-yl)methyl)-1H-pyrrolo[2,3-b]pyridin-5-amine] | – | > 100
Clc1cc2c(NCC34CC(COC5CCn6ccnc6C5)(C3)C4)ccnc2[nH]1 (stereo not drawn) [Example 1130, 2-Chloro-N-[[3-(5,6,7,8-tetrahydroimidazo[1,2-a]pyridin-7-yloxymethyl)-1-bicyclo[1.1.1]pentanyl]methyl]-1H-pyrrolo[2,3-b]pyridin-4-amine] | 0.3 to 1 | > 40
Nc1nccc2c(NC34CC(COc5ccc6nccn6c5)(C3)C4)cccc12 [Example 1131, N5-(3-((imidazo[1,2-a]pyridin-6-yloxy)methyl)bicyclo[1.1.1]pentan-1-yl)isoquinoline-1,5-diamine] | 10 to 40 | > 40
Nc1nccc2c(NCC34COC(COc5ccn6c(C(F)(F)F)nnc6c5)(C3)C4)cccc12 [Example 2206, N5-((1-(((3-(trifluoromethyl)-[1,2,4]triazolo[4,3-a]pyridin-7-yl)oxy)methyl)-2-oxabicyclo[2.1.1]hexan-4-yl)methyl)isoquinoline-1,5-diamine] | 1 to 3 | > 40
Nc1nccc2c(NCC34COC(COc5ccn6ncnc6c5)(C3)C4)cccc12 [Example 2207, N5-((1-(([1,2,4]triazolo[1,5-a]pyridin-7-yloxy)methyl)-2-oxabicyclo[2.1.1]hexan-4-yl)methyl)isoquinoline-1,5-diamine] | 1 to 3 | > 40
N#Cc1cnc(OCC23CC(CNc4cccc5c(N)nccc45)(CO2)C3)nc1 [Example 2208, 2-((4-(((1-aminoisoquinolin-5-yl)amino)methyl)-2-oxabicyclo[2.1.1]hexan-1-yl)methoxy)pyrimidine-5-carbonitrile] | 3 to 10 | > 40
Nc1nccc2c(NCC34COC(COc5ccc6ncnn6c5)(C3)C4)cccc12 [Example 2210, N5-((1-(([1,2,4]triazolo[1,5-a]pyridin-6-yloxy)methyl)-2-oxabicyclo[2.1.1]hexan-4-yl)methyl)isoquinoline-1,5-diamine] | 1 to 3 | > 40
Cn1ccc(OCC23CC(CNc4cccc5c(N)nccc45)(CN2C(=O)CCc2ccccn2)C3)cc1=O [Example 13016, 4-((4-(((1-aminoisoquinolin-5-yl)amino)methyl)-2-(3-(pyridin-2-yl)propanoyl)-2-azabicyclo[2.1.1]hexan-1-yl)methoxy)-1-methylpyridin-2(1H)-one] | 0.3 to 1 | –
Cn1ccc(OCC23CC(CNc4cccc5c(N)nccc45)(CN2C(=O)CCc2ccccc2Cl)C3)cc1=O [Example 13017, 4-((4-(((1-aminoisoquinolin-5-yl)amino)methyl)-2-(3-(2-chlorophenyl)propanoyl)-2-azabicyclo[2.1.1]hexan-1-yl)methoxy)-1-methylpyridin-2(1H)-one] | 0.3 to 1 | –
Cn1ccc(OCC23CC(CNc4cccc5c(N)nccc45)(CN2c2nc4ccccc4o2)C3)cc1=O [Example 13018, 4-[[4-[[(1-aminoisoquinolin-5-yl)amino]methyl]-2-(1,3-benzoxazol-2-yl)-2-azabicyclo[2.1.1]hexan-1-yl]methoxy]-1-methylpyridin-2-one] | 0.3 to 1 | –
Cn1ccc(OCC23CC(CNc4cccc5c(N)nccc45)(CN2C(=O)Nc2ccccc2)C3)cc1=O [Example 13019, 4-(((1-aminoisoquinolin-5-yl)amino)methyl)-1-(((1-methyl-2-oxo-1,2-dihydropyridin-4-yl)oxy)methyl)-N-phenyl-2-azabicyclo[2.1.1]hexane-2-carboxamide] | 0.3 to 1 | –
Cn1ccc(OCC23CC(CNc4cccc5c(N)nccc45)(CN2C(=O)OCc2ccccc2Cl)C3)cc1=O [Example 13020, 2-chlorobenzyl 4-(((1-aminoisoquinolin-5-yl)amino)methyl)-1-(((1-methyl-2-oxo-1,2-dihydropyridin-4-yl)oxy)methyl)-2-azabicyclo[2.1.1]hexane-2-carboxylate] | 0.01 to 0.1 | –
Cn1ccc(OCC23CC(CNc4cccc5c(N)nccc45)(CN2C(=O)Cc2ccccc2)C3)cc1=O [Example 13021, 4-((4-(((1-aminoisoquinolin-5-yl)amino)methyl)-2-(2-phenylacetyl)-2-azabicyclo[2.1.1]hexan-1-yl)methoxy)-1-methylpyridin-2(1H)-one] | 0.3 to 1 | –
Cn1cc(COC(=O)N2CC3(CNc4cccc5c(N)nccc45)CC2(COc2ccn(C)c(=O)c2)C3)cn1 [Example 13022, (1-methyl-1H-pyrazol-4-yl)methyl 4-(((1-aminoisoquinolin-5-yl)amino)methyl)-1-(((1-methyl-2-oxo-1,2-dihydropyridin-4-yl)oxy)methyl)-2-azabicyclo[2.1.1]hexane-2-carboxylate] | 0.01 to 0.1 | –
